Laboratory results reported in publication PMC3634896 (Bioorganic & medicinal chemistry letters, 2013).
“And” between values parts separate entries of the source, which are not always exact repeats. Equal entries are not always repeated.

Key:
human M5 = target: T1, human M5 (Homo sapiens, UniProt P08912); assay: M5 PAM concentration-response-curve; assay type: cell-based; conditions: Table 1, average of three independent experiments
T1 sequence (P08912 1-532): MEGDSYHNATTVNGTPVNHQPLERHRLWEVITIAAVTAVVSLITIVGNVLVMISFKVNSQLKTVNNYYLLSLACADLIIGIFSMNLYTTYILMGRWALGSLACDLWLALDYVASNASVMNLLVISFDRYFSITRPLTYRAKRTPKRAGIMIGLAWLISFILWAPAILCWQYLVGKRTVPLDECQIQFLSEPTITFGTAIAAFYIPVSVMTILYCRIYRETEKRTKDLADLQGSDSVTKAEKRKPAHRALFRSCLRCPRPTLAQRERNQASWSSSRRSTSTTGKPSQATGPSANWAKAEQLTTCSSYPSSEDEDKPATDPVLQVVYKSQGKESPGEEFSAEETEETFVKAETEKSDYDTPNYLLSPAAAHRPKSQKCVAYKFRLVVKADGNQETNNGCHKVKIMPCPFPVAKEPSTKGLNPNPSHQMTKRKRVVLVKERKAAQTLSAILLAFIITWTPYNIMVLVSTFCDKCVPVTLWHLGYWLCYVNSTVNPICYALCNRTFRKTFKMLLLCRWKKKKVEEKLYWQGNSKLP

rat M5 = target: T2, rat M5 (Rattus norvegicus, UniProt P08911); assay: M5 PAM CRC, rat M5; assay type: cell-based
T2 sequence (P08911 1-531): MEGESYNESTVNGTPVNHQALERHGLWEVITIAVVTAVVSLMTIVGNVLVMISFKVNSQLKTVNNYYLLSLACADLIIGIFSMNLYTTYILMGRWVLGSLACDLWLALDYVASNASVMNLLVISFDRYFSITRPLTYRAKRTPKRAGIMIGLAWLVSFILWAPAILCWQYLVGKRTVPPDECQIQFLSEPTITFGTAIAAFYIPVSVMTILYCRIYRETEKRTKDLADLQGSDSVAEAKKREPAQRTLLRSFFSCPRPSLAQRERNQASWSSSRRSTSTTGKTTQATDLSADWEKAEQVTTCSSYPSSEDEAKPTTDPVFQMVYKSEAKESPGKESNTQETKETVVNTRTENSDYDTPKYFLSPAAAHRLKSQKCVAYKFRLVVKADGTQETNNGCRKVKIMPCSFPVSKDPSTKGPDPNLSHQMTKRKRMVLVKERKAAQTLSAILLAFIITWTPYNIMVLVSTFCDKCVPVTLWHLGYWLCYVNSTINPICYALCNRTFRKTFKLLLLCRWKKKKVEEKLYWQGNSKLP

M1-M4 [1] = assay: rat mAChR selectivity versus M1-M4; assay type: cell-based; conditions: read-out: M1-M4 EC50s; rat (Fig. 5C); text does not state species
M1-M4 [2] = assay: human mAChR selectivity versus M1-M4; assay type: cell-based; conditions: read-out: M1-M4 EC50s; human data is the same as rat
CYP = CYP profile; assay type: in vitro ADME
[3] = ancillary pharmacology profile

Row | pEC50±SEM (human M5) | EC50 (rat M5) | EC50 (M1-M4 [1]) | EC50 (M1-M4 [2]) | CYP profile (CYP) | ancillary pharmacology profile [3] | Compound
1 | 6.39±0.04 | 0.5 µM | > 30 µM and < 30 µM | > 30 µM | relatively clean | relatively clean | O=C1C(=O)N(CCOc2ccccc2)c2ccc(OC(F)(F)F)cc21 [ML326, 1-(2-phenoxyethyl)-5-(trifluoromethoxy)indoline-2,3-dione]
2 | 6.28±0.03 |  |  |  |  |  | Cc1cccc(OCCN2C(=O)C(=O)c3cc(OC(F)(F)F)ccc32)c1 [Compound 19d]
3 | 6.35±0.04 |  |  |  |  |  | O=C1C(=O)N(CCOc2ccc(Cl)cc2)c2ccc(OC(F)(F)F)cc21 [Compound 19b]
